Entries after “also recorded” stand apart in the source; their conditions may differ.
System: seizures associated with hypoxic ischaemic encephalopathy (HIE) or anoxia at birth
Assay: Open label, expanded-access program: seizure frequency recorded by caregivers in a diary, relative to baseline
Type: in vivo, human
Set-up: reduction in tonic seizures over the treatment period / reduction in spasms over the treatment period / reduction in absence seizures over the treatment period / reduction in tonic-clonic seizures over the treatment period / reduction in myoclonic seizures over the treatment period: concentration or dose not given beside the values; Seizure frequency, Tonic / Seizure frequency, Spasm / Seizure frequency, Absence / Seizure frequency, Tonic-clonic / Seizure frequency, Focal with impairment / Seizure frequency, Atonic / Seizure frequency, Focal without impairment / Seizure frequency, Focal secondary generalisation / Seizure frequency, Myoclonic: unit not given here
Experimental: Subjects were required to be on one or more AEDs at stable doses for a minimum of two weeks prior to baseline and to have stable vagus nerve stimulation (VNS) settings and ketogenic diet ratios for a minimum of four weeks prior to baseline.
Dose was then increased weekly by 5 mg/kg/day to a goal of 20 to 25 mg/kg/day.
Modifications were made to concomitant AEDs as per clinical indication.
Seizure frequency, intensity, and duration were recorded by caregivers in a diary during a baseline period of at least 28 days. Changes in seizure frequency relative to baseline were calculated after at least 2 weeks and at defined timepoints of treatment.
Patients may be defined as responders if they had more than 50% reduction in seizure frequency compared to baseline. The percent change in seizure frequency was calculated as follows: […]
The percent change of seizure frequency may be calculated for any time interval where seizure number has been recorded. For the purpose of this example the percent change of seizure frequency for the end of the treatment period was calculated as follows: […]

[1] = Patient 4, 48 weeks, CBD 15.0 mg/kg/day
[2] = Patient 4, 60 weeks, CBD 20.0 mg/kg/day
[3] = Patient 4, treated for 60 weeks, vs baseline
[4] = Patient 5, 2 weeks, CBD 10.0 mg/kg/day
[5] = Patient 5, 4 weeks, CBD 20.0 mg/kg/day
[6] = Patient 5, 8 weeks, CBD 25.0 mg/kg/day
[7] = Patient 5, 12 weeks, CBD 25.0 mg/kg/day
[8] = Patient 5, 16 weeks, CBD 25.0 mg/kg/day
[9] = Patient 6, 2 weeks, CBD 10.0 mg/kg/day
[10] = Patient 6, treated for 2 weeks, vs baseline
[11] = Patient 7, 2 weeks, CBD 5.0 mg/kg/day
[12] = Patient 7, 4 weeks, CBD 10.0 mg/kg/day
[13] = Patient 7, 8 weeks, CBD 20.0 mg/kg/day
[14] = Patient 7, 12 weeks, CBD 25.0 mg/kg/day
[15] = Patient 9, 2 weeks, CBD 15.0 mg/kg/day
[16] = Patient 9, 4 weeks, CBD 20.0 mg/kg/day
[17] = Patient 9, 8 weeks, CBD 25.0 mg/kg/day
[18] = Patient 9, 12 weeks, CBD 25.0 mg/kg/day
[19] = Patient 9, 16 weeks, CBD 25.0 mg/kg/day
[20] = Patient 9, 24 weeks, CBD 25.0 mg/kg/day
[21] = Patient 9, 36 weeks, CBD 25.0 mg/kg/day
[22] = Patient 9, 48 weeks, CBD 25.0 mg/kg/day
[23] = Patient 9, 60 weeks, CBD 25.0 mg/kg/day
[24] = Patient 9, 72 weeks, CBD 25.0 mg/kg/day
[25] = Patient 9, 84 weeks, CBD 25.0 mg/kg/day
[26] = Patient 9, 108 weeks, CBD 25.0 mg/kg/day
[27] = Patient 9, 132 weeks, CBD 25.0 mg/kg/day

Structure (SMILES): C=C(C)[C@@H]1CCC(C)=C[C@H]1c1c(O)cc(CCCCC)cc1O [CBD, cannabidiol]
- Seizure frequency, Tonic-clonic (Patient 4, 36 weeks, CBD 15.0 mg/kg/day): 0
- Seizure frequency, Atonic [1]: 0
- Seizure frequency, Tonic [1]: 0
- Seizure frequency, Tonic-clonic [1]: 3.3
- Seizure frequency, Atonic [2]: 4.0
- Seizure frequency, Tonic [2]: 0
- Seizure frequency, Tonic-clonic [2]: 19.3
- reduction in tonic seizures over the treatment period [3]: 100%
- reduction in tonic-clonic seizures over the treatment period [3]: 87.1%
- Seizure frequency, Focal secondary generalisation [4]: 114.0
- Seizure frequency, Focal without impairment [4]: 0
- Seizure frequency, Focal secondary generalisation [5]: 106.0
- Seizure frequency, Focal without impairment [5]: 2.0
- Seizure frequency, Focal secondary generalisation [6]: 112.8
- Seizure frequency, Focal without impairment [6]: 1.9
- Seizure frequency, Focal secondary generalisation [7]: 111.0
- Seizure frequency, Focal without impairment [7]: 2.1
- Seizure frequency, Focal secondary generalisation [8]: 125.5
- Seizure frequency, Focal without impairment [8]: 3.9
- reduction in seizures over the treatment period (in words) (Patient 5, treated for 16 weeks): did not experience a reduction in seizures
- Seizure frequency, Spasm [9]: 100.0
- Seizure frequency, Tonic-clonic [9]: 10.0
- reduction in spasms over the treatment period [10]: 53.9%
- reduction in tonic-clonic seizures over the treatment period [10]: 28.6%
- Seizure frequency, Focal with impairment [11]: 70.0
- Seizure frequency, Myoclonic [11]: 58.0
- Seizure frequency, Tonic-clonic [11]: 74.0
- Seizure frequency, Focal with impairment [12]: 78.0
- Seizure frequency, Myoclonic [12]: 18.0
- Seizure frequency, Tonic-clonic [12]: 102.0
- Seizure frequency, Focal with impairment [13]: 65.3
- Seizure frequency, Myoclonic [13]: 65.3
- Seizure frequency, Tonic-clonic [13]: 86.7
- Seizure frequency, Focal with impairment [14]: 71.0
- Seizure frequency, Myoclonic [14]: 7.0
- Seizure frequency, Tonic-clonic [14]: 65.0
- reduction in myoclonic seizures over the treatment period (Patient 7, treated for 12 weeks, vs baseline): 30%
- Seizure frequency, Absence (Patient 8, 4 weeks, CBD 5.0 mg/kg/day): 5376.0
- Seizure frequency, Absence (Patient 8, 8 weeks, CBD 5.0 mg/kg/day): 4803.0
- Seizure frequency, Absence (Patient 8, 12 weeks, CBD 10.0 mg/kg/day): 3514.0
- Seizure frequency, Absence (Patient 8, 24 weeks, CBD 15.0 mg/kg/day): 4284.0
- Seizure frequency, Absence (Patient 8, 36 weeks, CBD 20.0 mg/kg/day): 2989.3
- Seizure frequency, Absence (Patient 8, 48 weeks, CBD 25.0 mg/kg/day): 3360.0
- Seizure frequency, Absence (Patient 8, 60 weeks, CBD 25.0 mg/kg/day): 3136.0
- Seizure frequency, Absence (Patient 8, 72 weeks, CBD 25.0 mg/kg/day): 2968.0
- Seizure frequency, Absence (Patient 8, 84 weeks, CBD 25.0 mg/kg/day): 2718.0
- reduction in absence seizures over the treatment period (Patient 8, treated for 84 weeks, vs baseline): 64%
- Seizure frequency, Myoclonic [15]: 2.0
- Seizure frequency, Tonic [15]: 118.0
- Seizure frequency, Myoclonic [16]: 1.0
- Seizure frequency, Tonic [16]: 88.0
- Seizure frequency, Myoclonic [17]: 0
- Seizure frequency, Tonic [17]: 48.0
- Seizure frequency, Myoclonic [18]: 0
- Seizure frequency, Tonic [18]: 92.0
- Seizure frequency, Myoclonic [19]: 0
- Seizure frequency, Tonic [19]: 90.0
- Seizure frequency, Myoclonic [20]: 0
- Seizure frequency, Tonic [20]: 142.4
- Seizure frequency, Myoclonic [21]: 0
- Seizure frequency, Tonic [21]: 53.0
- Seizure frequency, Myoclonic [22]: 0
- Seizure frequency, Tonic [22]: 98.0
- Seizure frequency, Myoclonic [23]: 0
- Seizure frequency, Tonic [23]: 95.6
- Seizure frequency, Myoclonic [24]: 0
- Seizure frequency, Tonic [24]: 96.0
- Seizure frequency, Myoclonic [25]: 0
- Seizure frequency, Tonic [25]: 99.2
- Seizure frequency, Myoclonic [26]: 0
- Seizure frequency, Tonic [26]: 69.0
- Seizure frequency, Myoclonic [27]: 0
- Seizure frequency, Tonic [27]: 76.8
- Seizure frequency, Absence (Patient 10, 4 weeks, CBD 5.0 mg/kg/day): 10.0
- Seizure frequency, Absence (Patient 10, 12 weeks, CBD 10.0 mg/kg/day): 610.0
- Seizure frequency, Absence (Patient 10, 24 weeks, CBD 15.0 mg/kg/day): 304.0
- Seizure frequency, Absence (Patient 10, 36 weeks, CBD 20.0 mg/kg/day): 2184.6
- Seizure frequency, Absence (Patient 10, 48 weeks, CBD 25.0 mg/kg/day): 1957.3
- Seizure frequency, Absence (Patient 10, 60 weeks, CBD 25.0 mg/kg/day): 1520.3
- Seizure frequency, Absence (Patient 10, 72 weeks, CBD 25.0 mg/kg/day): 1655.6
- Seizure frequency, Absence (Patient 10, 84 weeks, CBD 25.0 mg/kg/day): 1626.6
- Seizure frequency, Absence (Patient 10, 96 weeks, CBD 25.0 mg/kg/day): 1678.3
- Seizure frequency, Absence (Patient 10, 120 weeks, CBD 25.0 mg/kg/day): 1644.5
- Seizure frequency, Absence (Patient 10, 132 weeks, CBD 25.0 mg/kg/day): 1370.8
- reduction in absence seizures over the treatment period (Patient 10, treated for 132 weeks, vs baseline): 54.3%
- time of CBD treatment after which patient became seizure free of tonic seizures (patient #2): 36 weeks
- time of CBD treatment after which patient became seizure free of tonic seizures (patient #4): 12 weeks
- seizure freedom in patients with tonic seizures (in words) (patients 2 and 4, between 12 and 36 weeks of treatment): completely seizure free
- effect on seizures / seizure frequency (in words) (tonic, tonic-clonic, atonic, myoclonic, absence, focal seizures with impairment and spasms, HIE or anoxia at birth): effective in reducing the frequency; also recorded: significantly reduce the number of seizures; also recorded: significant reduction
